# Source: patent publication US4446133A, “1-Phenyl-4-carbamoyl piperazine compounds, process for preparation thereof and utilizations thereof” (Misuitoatsu Chemicals, Inc., priority 1980, dated 1984)
# How the values were obtained:
# [1] = test system: delayed hypersensitivity; test: Test 1: Test of Reinforcement of Delayed Hypersensitivity (picryl chloride); assay type: in vivo, ICR male mice; conditions: 50 mg/kg oral, simultaneously with sensitization; 24 h after challenge; control 29.6 ± 1.9; * P<0.05, ** P<0.01
# Description: This system was used for the test of reinforcement of delayed hypersensitivity.
# One group of eight ICR male mice, each having a body weight of about 30 g, were used for the test.
# Sensitization was effected by coating a 7% solution of picryl chloride in a 4/1 mixture of olive oil and acetone on the shaved abdomen of the mouse.
# Simultaneously with sensitization, a solution or suspension of the compound of the present invention in a 0.2% solution of carboxymethyl cellulose in a physiological saline was orally administered to the mouse at a dose of 50 mg per Kg of the body weight. To the control group, a 0.2% carboxymethyl cellulose solution in a physiological saline was similarly administered.
# The delayed hypersensitivity was challenged 7 days after sensitization by gripping the ear of the mouse by a forceps wrapped with a felt impregnated with a 1% solution of picryl chloride in olive oil and coating the ear with the solution. The thickness of the ear was measured before challenging and 24 hours after challenging and the ratio of increase of the thickness (average value of both the ears in eight mice±standard deviation) was obtained as shown in Table 1.
# For comparison, the test was similarly carried out by using Levamisole hydrochloride, and the obtained results are shown in Table 1. F.t tests were carried out. The group in which the test result was significant at a level of P<0.05 was marked by *, and the group in which the test result was significant at a level of P<0.01 was marked by **.
# [2] = test system: adjuvant arthritis; test: Test 2: Adjuvant Arthritis Test; assay type: in vivo, SD male rats; conditions: 5 mg/kg subcutaneous, 9 times, left hind leg, * P<0.05, ** P<0.01; for Swelling Ratio (average value ± standard variation), 15 days: control 84.4 ± 9.0; for Swelling Ratio (average value ± standard variation), 18 days: control 103.2 ± 9.7; for Swelling Ratio (average value ± standard variation), 21 days: control 107.5 ± 13.3
# [3] = test system: Sarcoma 180; test: Test 5: Test of Antitumor Effect to Sarcoma 180 by Subcutaneous Administration; assay type: in vivo, ICR female mice; conditions: 20 mg/kg subcutaneous; for D: average diameter of tumor, 2 weeks: control 10.8; for D: average diameter of tumor, 4 weeks: control 16.6; for D: average diameter of tumor, 6 weeks: control 20.3; for D: average diameter of tumor, 8 weeks: control 31.3; for D: average diameter of tumor, 10 weeks: control 40.5; for N: number of living mice, 0 weeks / N: number of living mice, 2 weeks / N: number of living mice, 4 weeks / N: number of living mice, 6 weeks / N: number of living mice, 8 weeks / N: number of living mice, 10 weeks: of 6 mice; for N: number of living mice, 0 weeks / N: number of living mice, 2 weeks / N: number of living mice, 4 weeks / N: number of living mice, 6 weeks: control 6; for N: number of living mice, 8 weeks: control 4; for N: number of living mice, 10 weeks: control 1
# Description: To the control group, a physiological saline solution was similarly administered. […] The diameter D (mm) of the tumor was measured, and the average value and the number N of the living mice were determined to obtain results shown in Table 4.
# [4] = test system: EL-4 leukemic cells; test: Test 3: In-Vitro Test of Inhibition of Growth of Cancer Cell by Macrophage; assay type: cell-based; conditions: 8 mg/kg intraperitoneal to mice, macrophages collected after 4 days, mixed with EL-4 cells; control 80.2
# Description: The results of the test of the action of the effective ingredient of the present invention on the macrophage will now be described with reference to the following Test 3. More specifically, the separated macrophage and EL-4 leukemic cell were mixed and cultured, and ^3 H-thymidine was added to a culture medium and the quantity of ^3 H-thymidine incorporated into the EL-4 cell was determined to examine the activity of the macrophage. When the macrophage is activated by administration of the effective ingredient of the present invention, inhibition of the growth of EL-4 cell, that is, phagocytosis of the cancer cell by the macrophage, is observed. Accordingly, if the take-in amount of ^3 H-thymidine is measured and this amount is reduced, it is confirmed that the macrophage has been activated. […] The dose was 8 mg per Kg of the body weight. To the control group, a physiological saline solution was similarly administered. After passage of 4 days, exuded abdominal cells were collected and deposited on a plastic Petri dish to collect macrophages. Then, 1×10^6 of so obtained macrophages and 1×10^5 of EL-4 leukemic cells of C57 BL/6J mouse were mixed and cultured in an RPMI 1640 culture medium to which 10% of bovine embryo serum was added (at 37° C. in the presence of 5% of CO2) for 24 hours. Then, 0.1μ Ci of ^3 H-thymidine was added and culturing was further conducted for 16 hours. Cells were collected on a filter paper from the culture medium and the amount of ^3 H-thymidine taken in was determined by a liquid scintillation counter. […] For comparison, the test was similarly carried out by using Levamisol hydrochloride.
smiles,measurement,setting,value
CCN(CC)C(=O)N1CCN(c2ccc(C(=O)O)cc2)CC1 [drawing 15],Ratio of Increase of Ear Thickness (average value ± standard variation),[1],37.7 ± 3.0%
CCOC(=O)c1ccc(N2CCN(C(=O)N(CC)CC)CC2)cc1 [drawing 20],"Swelling Ratio (average value ± standard variation), 15 days",[2],63.7 ± 12.0%
same,"Swelling Ratio (average value ± standard variation), 18 days",[2],60.4 ± 9.2%
same,"Swelling Ratio (average value ± standard variation), 21 days",[2],66.9 ± 11.1%
CCN(CC)C(=O)N1CCN(c2ccccc2)CC1 [drawing 17],"Swelling Ratio (average value ± standard variation), 15 days",[2],47.0 ± 8.0%
same,"Swelling Ratio (average value ± standard variation), 18 days",[2],52.4 ± 9.2%
same,"Swelling Ratio (average value ± standard variation), 21 days",[2],59.8 ± 12.1%
CCN(CC)C(=O)N1CCN(c2ccc(C(C)=O)cc2)CC1 [drawing 40],"D: average diameter of tumor, 2 weeks",[3],4.1 mm
same,"D: average diameter of tumor, 4 weeks",[3],7.7 mm
same,"D: average diameter of tumor, 6 weeks",[3],8.5 mm
same,"D: average diameter of tumor, 8 weeks",[3],4.3 mm
same,"D: average diameter of tumor, 10 weeks",[3],0 mm
same,"N: number of living mice, 0 weeks",[3],6
same,"N: number of living mice, 2 weeks",[3],6
same,"N: number of living mice, 4 weeks",[3],6
same,"N: number of living mice, 6 weeks",[3],6
same,"N: number of living mice, 8 weeks",[3],6
same,"N: number of living mice, 10 weeks",[3],6
CCOC(=O)c1ccc(N2CCN(C(=O)N(CC)CC)CC2)cc1 [drawing 14],Ratio of Increase of Ear Thickness (average value ± standard variation),[1],39.1 ± 4.0%
CCOC(=O)c1ccc(N2CCN(C(=O)N(CC)CC)CC2)cc1 [drawing 26],Take-in Ratio of 3H-thymidine (average value),[4],30.3%
CCOC(=O)c1ccc(N2CCN(C(=O)N(CC)CC)CC2)cc1 [drawing 38],"D: average diameter of tumor, 2 weeks",[3],3.2 mm
same,"D: average diameter of tumor, 4 weeks",[3],3.4 mm
same,"D: average diameter of tumor, 6 weeks",[3],3.8 mm
same,"D: average diameter of tumor, 8 weeks",[3],2.5 mm
same,"D: average diameter of tumor, 10 weeks",[3],0.8 mm
same,"N: number of living mice, 0 weeks",[3],6
same,"N: number of living mice, 2 weeks",[3],6
same,"N: number of living mice, 4 weeks",[3],6
same,"N: number of living mice, 6 weeks",[3],6
same,"N: number of living mice, 8 weeks",[3],6
same,"N: number of living mice, 10 weeks",[3],6
CCN(CC)C(=O)N1CCN(c2ccc(C(=O)O)cc2)CC1 [drawing 21],"Swelling Ratio (average value ± standard variation), 15 days",[2],65.0 ± 10.2%
same,"Swelling Ratio (average value ± standard variation), 18 days",[2],64.6 ± 7.9%
same,"Swelling Ratio (average value ± standard variation), 21 days",[2],70.8 ± 10.7%
CCN(CC)C(=O)N1CCN(c2ccc(Cl)cc2)CC1 [drawing 18],"Swelling Ratio (average value ± standard variation), 15 days",[2],57.9 ± 11.1%
same,"Swelling Ratio (average value ± standard variation), 18 days",[2],55.7 ± 9.7%
same,"Swelling Ratio (average value ± standard variation), 21 days",[2],62.8 ± 10.9%
CCN(CC)C(=O)N1CCN(c2ccc(Cl)cc2)CC1 [drawing 36],"D: average diameter of tumor, 2 weeks",[3],2.3 mm
same,"D: average diameter of tumor, 4 weeks",[3],2.1 mm
same,"D: average diameter of tumor, 6 weeks",[3],3.8 mm
same,"D: average diameter of tumor, 8 weeks",[3],0 mm
same,"D: average diameter of tumor, 10 weeks",[3],0 mm
same,"N: number of living mice, 0 weeks",[3],6
same,"N: number of living mice, 2 weeks",[3],6
same,"N: number of living mice, 4 weeks",[3],6
same,"N: number of living mice, 6 weeks",[3],6
same,"N: number of living mice, 8 weeks",[3],6
same,"N: number of living mice, 10 weeks",[3],6
CCN(CC)C(=O)N1CCN(c2ccc(C(C)=O)cc2)CC1 [drawing 28],Take-in Ratio of 3H-thymidine (average value),[4],27.4%
CCN(CC)C(=O)N1CCN(c2ccc(OC)cc2)CC1 [drawing 19],"Swelling Ratio (average value ± standard variation), 15 days",[2],60.1 ± 11.3%
same,"Swelling Ratio (average value ± standard variation), 18 days",[2],57.1 ± 8.8%
same,"Swelling Ratio (average value ± standard variation), 21 days",[2],64.4 ± 10.5%
CCN(CC)C(=O)N1CCN(c2ccc(C(C)=O)cc2)CC1 [drawing 16],Ratio of Increase of Ear Thickness (average value ± standard variation),[1],38.8 ± 3.5%
CCN(CC)C(=O)N1CCN(c2ccc(Cl)cc2)CC1 [drawing 12],Ratio of Increase of Ear Thickness (average value ± standard variation),[1],42.3 ± 3.7%
CCN(CC)C(=O)N1CCN(c2ccc(OC)cc2)CC1 [drawing 37],"D: average diameter of tumor, 2 weeks",[3],3.0 mm
same,"D: average diameter of tumor, 4 weeks",[3],1.0 mm
same,"D: average diameter of tumor, 6 weeks",[3],2.2 mm
same,"D: average diameter of tumor, 8 weeks",[3],5.3 mm
same,"D: average diameter of tumor, 10 weeks",[3],4.0 mm
same,"N: number of living mice, 0 weeks",[3],6
same,"N: number of living mice, 2 weeks",[3],6
same,"N: number of living mice, 4 weeks",[3],6
same,"N: number of living mice, 6 weeks",[3],6
same,"N: number of living mice, 8 weeks",[3],6
same,"N: number of living mice, 10 weeks",[3],6
CCN(CC)C(=O)N1CCN(c2ccc(OC)cc2)CC1 [drawing 13],Ratio of Increase of Ear Thickness (average value ± standard variation),[1],40.1 ± 4.2%
CCN(CC)C(=O)N1CCN(c2ccc(Cl)cc2)CC1 [drawing 24],Take-in Ratio of 3H-thymidine (average value),[4],20.5%
CCN(CC)C(=O)N1CCN(c2ccc(C(=O)O)cc2)CC1 [drawing 39],"D: average diameter of tumor, 2 weeks",[3],2.1 mm
same,"D: average diameter of tumor, 4 weeks",[3],4.4 mm
same,"D: average diameter of tumor, 6 weeks",[3],4.8 mm
same,"D: average diameter of tumor, 8 weeks",[3],3.9 mm
same,"D: average diameter of tumor, 10 weeks",[3],0 mm
same,"N: number of living mice, 0 weeks",[3],6
same,"N: number of living mice, 2 weeks",[3],6
same,"N: number of living mice, 4 weeks",[3],6
same,"N: number of living mice, 6 weeks",[3],6
same,"N: number of living mice, 8 weeks",[3],6
same,"N: number of living mice, 10 weeks",[3],6
CCN(CC)C(=O)N1CCN(c2ccccc2)CC1 [drawing 35],"D: average diameter of tumor, 2 weeks",[3],2.9 mm
same,"D: average diameter of tumor, 4 weeks",[3],4.1 mm
same,"D: average diameter of tumor, 6 weeks",[3],4.8 mm
same,"D: average diameter of tumor, 8 weeks",[3],1.0 mm
same,"D: average diameter of tumor, 10 weeks",[3],0 mm
same,"N: number of living mice, 0 weeks",[3],6
same,"N: number of living mice, 2 weeks",[3],6
same,"N: number of living mice, 4 weeks",[3],6
same,"N: number of living mice, 6 weeks",[3],6
same,"N: number of living mice, 8 weeks",[3],6
same,"N: number of living mice, 10 weeks",[3],6
CCN(CC)C(=O)N1CCN(c2ccc(OC)cc2)CC1 [drawing 25],Take-in Ratio of 3H-thymidine (average value),[4],27.7%
CCN(CC)C(=O)N1CCN(c2ccc(C(=O)O)cc2)CC1 [drawing 27],Take-in Ratio of 3H-thymidine (average value),[4],29.8%
CCN(CC)C(=O)N1CCN(c2ccc(C(C)=O)cc2)CC1 [drawing 22],"Swelling Ratio (average value ± standard variation), 15 days",[2],61.4 ± 10.4%
same,"Swelling Ratio (average value ± standard variation), 18 days",[2],62.2 ± 8.8%
same,"Swelling Ratio (average value ± standard variation), 21 days",[2],68.4 ± 12.0%
CCN(CC)C(=O)N1CCN(c2ccccc2)CC1 [drawing 23],Take-in Ratio of 3H-thymidine (average value),[4],24.4%
CCN(CC)C(=O)N1CCN(c2ccccc2)CC1 [drawing 11],Ratio of Increase of Ear Thickness (average value ± standard variation),[1],44.0 ± 5.0%
